# From PubChem BioAssay AID298 (DTP/NCI, 2004)
# Records with an inconclusive call do not appear.
# Test system: MX-1 breast xenograft, intrarenal, nude mice, tumor weight
# Experiment: NCI In Vivo Anticancer Drug Screen. Data for tumor model Human Mammary Carcinoma MX-1 Xenograft (intrarenal inoculation) in NU/NU BALB/C (nude) mice
# Settings: endpoint: mean tumor weight change, higher = larger tumour
# In short: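 Compounds were given to mice carrying transplanted tumors, and tumor size or survival was measured. Each value is the treated-group measurement (T) divided by the vehicle-treated control-group measurement (C).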
# [1] = dose: 150.0 mg/kg/injection, schedule: Q04DX003 (ip), vehicle: suspension in saline
# [2] = dose: 300.0 mg/kg/injection, schedule: Q04DX003 (ip), vehicle: suspension in saline
smiles,measurement,setting,value
CCCCCCCC(=O)O[C@H]1[C@H]2[C@@H](CC1(C)C)C(=O)[C@]13O[C@H]1C(=O)[C@]1(CO1)[C@]23C,T/C,"dose: 5.0 mg/kg/injection, schedule: Q04DX003 (ip), vehicle: saline with Tween-80",100 % of control
same,T/C,"dose: 10.0 mg/kg/injection, schedule: Q04DX003 (ip), vehicle: saline with Tween-80",96 % of control
same,T/C,"dose: 20.0 mg/kg/injection, schedule: Q04DX003 (ip), vehicle: saline with Tween-80",80 % of control
NC(=O)CCC(N)C(=O)O (configuration not stated),T/C,[1],91 % of control
same,T/C,[2],102 % of control
same,T/C,"dose: 600.0 mg/kg/injection, schedule: Q04DX003 (ip), vehicle: suspension in saline",76 % of control
same,T/C,"dose: 1200.0 mg/kg/injection, schedule: Q04DX003 (ip), vehicle: suspension in saline",87 % of control
COc1cccc2c1C(CO)N1C(C#N)C3CC(C(=O)O)C(C1C2)N3C (configuration not stated),T/C,"dose: 3.75 mg/kg/injection, schedule: Q04DX003 (ip), vehicle: saline",31 % of control
same,T/C,"dose: 6.25 mg/kg/injection, schedule: Q01DX010 (ip), vehicle: saline",-61 % of control
same,T/C,"dose: 6.25 mg/kg/injection, schedule: Q04DX003 (ip), vehicle: saline",9 % of control
same,T/C,"dose: 6.25 mg/kg/injection, schedule: Q04DX003 (ip), vehicle: suspension in saline",10 % of control
same,T/C,"dose: 7.5 mg/kg/injection, schedule: Q04DX003 (ip), vehicle: saline",40 % of control
same,T/C,"dose: 12.5 mg/kg/injection, schedule: Q01DX010 (ip), vehicle: saline",-100 % of control
same,T/C,"dose: 12.5 mg/kg/injection, schedule: Q04DX003 (ip), vehicle: saline",17 % of control
same,T/C,"dose: 12.5 mg/kg/injection, schedule: Q04DX003 (ip), vehicle: suspension in saline",6 % of control
same,T/C,"dose: 15.0 mg/kg/injection, schedule: Q04DX003 (ip), vehicle: saline",38 % of control
same,T/C,"dose: 25.0 mg/kg/injection, schedule: Q01DX010 (ip), vehicle: saline",-99 % of control
same,T/C,"dose: 25.0 mg/kg/injection, schedule: Q04DX003 (ip), vehicle: saline",14 % of control
same,T/C,"dose: 25.0 mg/kg/injection, schedule: Q04DX003 (ip), vehicle: suspension in saline",-48 % of control
same,T/C,"dose: 30.0 mg/kg/injection, schedule: Q04DX003 (ip), vehicle: saline",58 % of control
same,T/C,"dose: 50.0 mg/kg/injection, schedule: Q04DX003 (ip), vehicle: saline",2 % of control
same,T/C,"dose: 50.0 mg/kg/injection, schedule: Q04DX003 (ip), vehicle: suspension in saline",-79 % of control
same,T/C,"dose: 60.0 mg/kg/injection, schedule: Q04DX003 (ip), vehicle: saline",13 % of control
Cn1c(-c2ccc(/C=N\N3CCN(/N=C/c4ccc(-c5c[n+]6ccsc6n5C)cc4)CC3)cc2)c[n+]2ccsc12,T/C,"dose: 3.0 mg/kg/injection, schedule: Q04DX003 (ip), vehicle: saline with Tween-80",79 % of control
Cn1nnc2c(C(N)=O)ncn2c1=O,T/C,"dose: 75.0 mg/kg/injection, schedule: Q04DX003 (ip), vehicle: suspension in saline",68 % of control
same,T/C,"dose: 150.0 mg/kg/injection, schedule: Q04DX003 (ip), vehicle: saline",24 % of control
same,T/C,[1],15 % of control
same,T/C,"dose: 300.0 mg/kg/injection, schedule: Q04DX003 (ip), vehicle: saline",-68 % of control
same,T/C,[2],-100 % of control
NCCCNCCCCNC(=O)C(O)NC(=O)CCCCCCN=C(N)N (configuration not stated),T/C,"dose: 25.0 mg/kg/injection, schedule: Q04DX003 (ip), vehicle: saline with Tween-80",69 % of control
O=C(CN1CCOCC1)Nc1nc(-c2ccc(Cl)cc2)cs1,T/C,"dose: 150.0 mg/kg/injection, schedule: Q04DX003 (ip), vehicle: other",96 % of control
same,T/C,"dose: 600.0 mg/kg/injection, schedule: Q04DX003 (ip), vehicle: other",71 % of control
same,T/C,"dose: 1200.0 mg/kg/injection, schedule: Q04DX003 (ip), vehicle: other",60 % of control
O=NNc1ccc(Cl)cn1,T/C,"dose: 4.7 mg/kg/injection, schedule: Q04DX003 (ip), vehicle: water",60 % of control
same,T/C,"dose: 9.4 mg/kg/injection, schedule: Q04DX003 (ip), vehicle: water",59 % of control
same,T/C,"dose: 18.7 mg/kg/injection, schedule: Q04DX003 (ip), vehicle: water",29 % of control
same,T/C,"dose: 37.5 mg/kg/injection, schedule: Q04DX003 (ip), vehicle: water",4 % of control
